This is an account of results in EP0009776A1, “N-monohydroxypropylamides, N-dihydroxypropylamides and their acetonoides of all-E and 13-Z retinoic acid, process for their preparation and pharmaceutical compositions containing them” (BASF Aktiengesellschaft, priority 1978, dated 1980).

The experiment relates to Hamster-Tracheen-Gewebe. Briefly: Reversal of keratinization induced by vitamin A deficiency in hamster tracheal tissue (method of Clamon et al. / Sporn et al.). The class given is cell-based. The following applies: in 10^-8 molarer Lösung. The text has this: Die erfindungsgemäßen Verbindungen sind in ihrer biologischen Aktivität den bekannten Retinsäureamiden der DE-OS 21 02 586 in etwa vergleichbar. Beispielsweise hebsowohl Retinsäure-N-(ß-hydroxy)-ethylamid als auch die erfindungsgemäßen Retinoide die durch Vitamin A-Hypovitamines induzierte Keratinisierung von Hamster-Tracheen-Gewebe noch in 10^-8 molarer Lösung vollständig auf. Die Methodik hierzu kann G.H. CLAMON et al Nature 250, 64 - 66 (1974) oder M.B. SPORN et al Nature 253, 47 - 50 (1975) entnommen werden. Die Keratinisierung wird als praekanzerotischer Prozes angesehen.

As to `CC1=C(/C=C/C(C)=C/C=C/C(C)=C/C(=O)NCCO)C(C)(C)CCC1` [Retinsäure-N-(ß-hydroxy)-ethylamid], the “Aufhebung der durch Vitamin A-Hypovitamines induzierten Keratinisierung von Hamster-Tracheen-Gewebe” value was “vollständig”.
